Test results: PubChem BioAssay AID489022 (Sanford-Burnham Center for Chemical Genomics, 2010)
Calls of active or inactive are those of the source. No rule for the calls is given here.

Tested on: HEK-293T NF-kB luciferase reporter, luminescence counterscreen
Experiment: inhibitors of NF-kB luciferase reporter, HEK-293T, dose response, counter-screen for BCR NF-kB inhibitor project, luminescence, B-cell screen hits (AID 489022)

Cc1nc([N+](=O)[O-])c(Sc2nc3ccc([N+](=O)[O-])cc3[nH]2)n1Cc1ccccc1
IC50: 47.5 µM (inactive)

Cc1ccc(CSc2nnc(SCC(=O)N/N=C/C=C/c3ccccc3[N+](=O)[O-])s2)cc1
IC50: 34.8 µM (inactive)

COc1ccc(-c2noc(N3CCC(C(=O)Nc4cccc(OC)c4)CC3)n2)cc1
IC50: 17.9 µM

COc1ccccc1/C=C1\SC(=S)N(CCC(=O)Nc2cccc(O)c2)C1=O
IC50: > 80 µM (inactive)

COc1cccc(-c2noc(CCC(=O)NCCc3ccccc3)n2)c1
IC50: 75.4 µM (inactive)

COc1ccc(CC(=O)Nc2cccc(-c3ccc4nnc(C)n4n3)c2)cc1
IC50: 41.8 µM (inactive)

COc1ccc(NC(=O)c2cc(-c3ccccn3)nc3ccccc23)cc1S(=O)(=O)N(C)C
IC50: 51.4 µM (inactive)

CC(C)c1[nH]nc2c1C(c1ccco1)C(C#N)=C(N)O2 (stereo not given)
IC50: > 80 µM (inactive)

COc1ccc(-n2c(-c3ccc(Br)cc3)c[n+]3c2CCc2ccccc2-3)cc1
IC50: 3.96 µM

COC(=O)[C@@H]1Cc2c([nH]c3ccccc23)C(C)(C)N1C(=O)CCl
IC50: 36 µM (inactive)

C=CCOc1ccc(/C=C2\SC(=S)N(CCC(=O)O)C2=O)cc1
IC50: 51.4 µM (inactive)

COc1cc(Br)c(C(=O)c2nccc3cc(OC)c(OC)cc23)cc1OC
IC50: 27.5 µM (inactive)

COc1ccc(-n2c(-c3ccc(Cl)cc3)c[n+]3c2CCc2ccccc2-3)cc1
IC50: 3.18 µM

Cc1csc(NC(=O)/C=C/c2ccc3c(c2)OCO3)n1
IC50: > 80 µM (inactive)

COc1ccc2nc(Sc3c([N+](=O)[O-])nc(C)n3Cc3ccccc3)[nH]c2c1
IC50: 55.4 µM (inactive)

COc1ccc(C(=O)Nc2nnc(SCC(=O)Nc3ccc(NC(C)=O)cc3)s2)c(OC)c1
IC50: > 80 µM (inactive)

Cc1nn(-c2ccc(N3CCCCC3)nn2)c(C)c1CCC(=O)Nc1ccccc1F
IC50: 73.3 µM (inactive)

CCN1C(=O)c2cccc3c(S(=O)(=O)N4CCC(C)CC4)ccc1c23
IC50: 17.5 µM

COc1ccc(-c2ccc(C(C)=O)cc2)cc1[C@H]1[C@H]2C=CC[C@@H](C)[C@@H]2C(=O)N1Cc1ccccc1
IC50: 14.2 µM

C#CCN(Cc1ccccc1)S(=O)(=O)C=C
IC50: 51.3 µM (inactive)

O=C(CCCc1nc(-c2ccccc2Cl)no1)NC1CCCC1
IC50: 27.1 µM (inactive)

CC(C)CCNC(=O)CCCOc1cc(=O)n(C)c2ccccc12
IC50: 60.7 µM (inactive)

O=C(NNC(=O)C12CC3CC(CC(Br)(C3)C1)C2)c1ccccc1F
IC50: > 80 µM (inactive)

CC1(C)CC2CC(C)(CN2S(=O)(=O)c2ccc(C(=O)Nc3ccc(S(=O)(=O)N4CCOCC4)cc3)cc2)C1 (stereo not given)
IC50: 0.68 µM

CC1CCN(C(=O)CCCOc2cc(=O)n(C)c3ccccc23)CC1
IC50: > 80 µM (inactive)

Cn1c(=O)n(C)c2cc(C(=O)Nc3ccc4c(c3)OCO4)ccc21
IC50: > 80 µM (inactive)

O=C(c1cc2nc(-c3ccccc3)cc(-c3ccccc3)n2n1)N1CCN(C(=O)c2ccco2)CC1
IC50: 11 µM

CCOc1ccc(-n2c(-c3ccccc3)c[n+]3c2CCCCC3)cc1
IC50: 1.4 µM

CC(C)[C@H](N)c1nnc(SCC(=O)c2ccc(Cl)cc2)o1
IC50: > 80 µM (inactive)

Cc1nc2cc(-c3cccc(F)c3)nn2c(C)c1CCC(=O)NC(C)CCc1ccco1 (stereo not given)
IC50: 11.4 µM

CC(=O)C1=NN(c2ccccc2)C(c2cccs2)N1c1ccc(N(C)C)cc1 (stereo not given)
IC50: 5.42 µM

Cc1ccccc1Nc1nc(Cl)c(C=O)s1
IC50: > 80 µM (inactive)

Cn1c(=O)cc(OCCCC(=O)NCc2ccccn2)c2ccccc21
IC50: > 80 µM (inactive)

Cc1cc(=O)[nH]c2c(C)cc(S(=O)(=O)N3CCCCC3)cc12
IC50: > 80 µM (inactive)

O=C(CCCN1C(=O)/C(=C/c2ccccc2Cl)SC1=S)NNC(=O)c1ccccc1Cl
IC50: 20 µM

Cc1ccc(-c2nsc3c(N4CCC(C(N)=O)CC4)ncnc23)cc1
IC50: > 80 µM (inactive)

CCn1c(=O)cc(OCC(=O)Nc2ccc(OC)c(OC)c2)c2ccccc21
IC50: 70.3 µM (inactive)

Cn1c(=O)cc(OCCCC(=O)NC2CCCC2)c2ccccc21
IC50: 46 µM (inactive)

COc1ccc(-c2nn(C)c(=O)c3ccccc23)cc1NS(C)(=O)=O
IC50: 43.9 µM (inactive)

COc1ccc(NC(=O)CN(C)C(=O)C2(c3ccccc3)CCCC2)cc1
IC50: 21.3 µM (inactive)

O=C1NC[C@H](c2ccccc2)OC(=O)[C@@H](Cc2ccc(F)cc2)C/C=C\C[C@H]1CC(=O)N(CCO)Cc1ccccc1
IC50: 16.9 µM

Cc1ccc(C(=O)CSc2nnc(COc3cc(C)cc(C)c3)o2)cc1
IC50: 24.9 µM (inactive)

Cc1ccc(/C=C2\SC(=S)N(CCCC(=O)Nc3ccc(O)cc3)C2=O)cc1
IC50: > 80 µM (inactive)

COC(=O)c1[nH]c2ccc(C)cc2c1NC(=O)Nc1ccccc1OC
IC50: > 80 µM (inactive)

COc1cc(OC)cc(-c2cc3nc(C)c(CCC(=O)Nc4nc(C)cs4)c(C)n3n2)c1
IC50: > 80 µM (inactive)

CCN(CC)c1ccc2cc(NC(=O)CCC(=O)O)c(=O)oc2c1
IC50: 1.38 µM

O=S(=O)(c1cnc(Cl)c(Cl)c1)N1CCCc2ccccc21
IC50: > 80 µM (inactive)

CCN(C(=O)CN1C(=O)NC(c2ccccc2)(c2ccc(C)c(C)c2)C1=O)C1CCCCC1 (stereo not given)
IC50: 26.6 µM (inactive)

Cc1ccc(NC(=O)O/N=C/c2c(C)nn(C(C)(C)C)c2C)cc1Cl
IC50: < 0.16 µM

COC(=O)C(C)Oc1cc(C)cc2oc(=O)c3c(c12)CCC3 (stereo not given)
IC50: 28.6 µM (inactive)

O=S(=O)(NCc1ccncc1)c1ccc(Br)s1
IC50: 0.86 µM

COc1ccc(C(=O)Nc2ccccc2C(=O)NCc2ccco2)cc1OC
IC50: > 80 µM (inactive)

Cc1ccc(-c2cn(-c3ccccc3)c3[n+]2CCCS3)cc1
IC50: 4.88 µM

O=C(CSCCO)Nc1ccc(C23CC4CC(CC(C4)C2)C3)cc1
IC50: 3.86 µM

COc1cc(OC)c(/C=N/NC(N)=S)cc1Br
IC50: > 80 µM (inactive)

Cc1nn(C(C)(C)C)c(OC(=O)c2ccc(Br)o2)c1Sc1ccccc1
IC50: 53.8 µM (inactive)

CCOc1ccc(S(=O)(=O)NCc2ccncc2)cc1NC(=O)c1ccccc1
IC50: 1.37 µM

Cc1c(CCC(=O)NCCCn2ccnc2)c(=O)oc2c(C)c3oc4c(c3cc12)CCCC4
IC50: 6.65 µM

COc1ccccc1/C=C1\SC(=S)N(CCC(=O)Nc2nnc(C)s2)C1=O
IC50: > 80 µM (inactive)

CC1=CC(C)(C)Nc2ccc(OC(=O)c3cccnc3)cc21
IC50: 16.1 µM

Cc1ccc(C(=O)NNC(=O)CCCN2C(=O)/C(=C/c3ccccc3Cl)SC2=S)cc1
IC50: 30.8 µM (inactive)

COc1ccc(/C=C2\SC(=S)N(CCC(=O)Nc3ccc(C(=O)O)cc3)C2=O)cc1OC
IC50: > 80 µM (inactive)

C=CCOc1ccc(NC(=O)C(=O)NCCCn2ccnc2)cc1
IC50: > 80 µM (inactive)

Cc1ccc(-n2c(-c3ccccc3)c[n+]3c2CCc2ccccc2-3)c(C)c1
IC50: 2.15 µM

COc1ccccc1/C=C1\SC(=S)N(CCC(=O)NC2=NCCS2)C1=O
IC50: > 80 µM (inactive)

CC(C)(C)c1ccc(-c2noc(CCC(=O)N3CCOCC3)n2)cc1
IC50: 35 µM (inactive)

CCN(CC)C(=O)c1ccc(S(=O)(=O)Cc2ccc(C)cc2)c([N+](=O)[O-])c1
IC50: 34.7 µM (inactive)

N=c1ccn2c(n1)O[C@H]1[C@H](O)[C@@H](CO)O[C@H]12
IC50: > 80 µM (inactive)

CCn1c(=O)cc(SCC(=O)N2CCN(C(=O)c3ccco3)CC2)c2ccccc21
IC50: 40.9 µM (inactive)

CC(C)C(c1nnnn1Cc1ccccc1)N(Cc1ccco1)Cc1cccs1 (stereo not given)
IC50: 8.89 µM

COC(=O)[C@@]12OC[C@]34[C@H]([C@@H](O)[C@@H]1O)[C@@]1(C)C(=O)C(O[C@@H]5OC(CO)[C@@H](O)[C@@H](O)[C@@H]5O)=C[C@@H](C)[C@@H]1C[C@H]3OC(=O)[C@H](OC(=O)/C=C(\C)C(C)(C)OC(C)=O)[C@@H]24 (stereo not given in full)
IC50: 3.2 µM

CCN(CC(=O)Nc1c(F)cccc1F)C(=O)c1cc(S(=O)(=O)N(CC)CC)ccc1N1CCCCC1
IC50: 26.8 µM (inactive)

Cc1nc2ccccn2c1C(=O)/C=C/c1cccc([N+](=O)[O-])c1
IC50: 52.6 µM (inactive)

CCOC(=O)c1sc(NC(=O)c2cc(-c3ccccc3C)nc3ccccc23)c(C#N)c1C
IC50: 0.29 µM

CCCCn1c2c(c(=N)c3ccccc31)CCC2
IC50: 40.8 µM (inactive)

O=C(Nc1ccc(NC(=O)c2cc3ccccc3o2)cc1)c1ccc2c(c1)OCCO2
IC50: > 80 µM (inactive)

CCC(C)[C@H](N)c1nnc(SCC(=O)c2ccc(Cl)cc2)o1 (stereo not given in full)
IC50: > 80 µM (inactive)

CC(C)c1ccc(/C=C2\SC(=S)N(CCC(=O)N3CCCCC3CCO)C2=O)cc1 (stereo not given)
IC50: 17.5 µM

CCNc1nc(C)c2cc(Br)c(=O)n(CC)c2n1
IC50: > 80 µM (inactive)

COc1ccc(C(C(=O)NC2CCCCC2)N(C(=O)CCl)c2ccc(Cl)cc2)cc1 (stereo not given)
IC50: 25.1 µM (inactive)

COc1ccc(-c2ccc(N(C)C)cc2)cc1[C@H]1[C@H]2C=CC[C@@H](C)[C@@H]2C(=O)N1Cc1ccccc1
IC50: > 80 µM (inactive)

O=C(N/N=C/c1cccnc1)c1cc(-c2ccccc2OCc2ccccc2)n[nH]1
IC50: 12.7 µM

Cc1[nH]c2ccccc2c1/C=N/Nc1nc(Nc2ccc(F)cc2)nc(N2CCOCC2)n1
IC50: > 80 µM (inactive)

Cc1ccc(/C=C2\SC(=S)N(CCCC(=O)NC3CCCC3)C2=O)cc1
IC50: > 80 µM (inactive)

COCCNC(=O)CSCc1nc(-c2ccc(SC)cc2)oc1C
IC50: 65.6 µM (inactive)

COc1cc(/C=N/Nc2nc(Nc3ccccc3)nc(N3CCOCC3)n2)ccc1OC(=O)c1ccco1
IC50: > 80 µM (inactive)

Cc1ccc(C)c(-n2nnnc2Sc2nnnn2-c2ccccc2)c1
IC50: 6.7 µM

O=C(Oc1cccc(/C=N/Nc2nc(N3CCOCC3)nc(N3CCOCC3)n2)c1)c1ccco1
IC50: > 80 µM (inactive)

CCc1ccc(/C=C2/SC(=S)N(CCC(=O)Nc3cccnc3)C2=O)cc1
IC50: > 80 µM (inactive)

CCN1C(=O)c2cccc3c(S(=O)(=O)NCC4CCCO4)ccc1c23 (stereo not given)
IC50: 54.5 µM (inactive)

CC1=CC(C)(C)Nc2ccc(OC(=O)C(Cc3ccccc3)N3C(=O)c4ccccc4C3=O)cc21 (stereo not given)
IC50: > 80 µM (inactive)

Cc1ccc(C(=O)C[n+]2cc(-c3ccc(C)cc3)n3c2CCCCC3)cc1
IC50: 4.44 µM

Cc1nc2cc(-c3ccccc3)nn2c(C)c1CCC(=O)N1CCC2(CC1)OCCO2
IC50: 52 µM (inactive)

Cc1[nH]c2ccccc2c1/C=N/Nc1nc(Nc2ccccc2)nc(N2CCOCC2)n1
IC50: > 80 µM (inactive)

Cc1ccc(S(=O)(=O)CC2CSc3nc4ccccc4n32)cc1 (stereo not given)
IC50: 0.41 µM
